In patent US20130164249A1, “COMPOSITIONS AND METHODS FOR INHIBITING VIRAL AND BACTERIAL ACTIVITY” (priority 2007, published 2013):

Columns and labels:
HIV-1 CN54 gp120 = test: Surface plasmon resonance screening of phenylboronic acid ligands with HIV gp120; type: binding; details: SPR, 25° C., 1:1 interaction model, pH 5.5 / 7.5 / 9.5 buffers
Procedure: Two commercially available functionalized phenylboronic acids (Frontier Scientific, Logan Utah) were screened to compare the effect of electron withdrawing substituents (2,5-difluorophenylboronic acid, 1, FIG. 3a), versus a ortho-hydroxymethyl substituent (2-hydroxymethylphenylboronic acid, 2, FIG. 3a) prepared at 50 mM concentrations in 25 mM buffers at the appropriate pH (pH 5.5 acetate buffer, pH 7.5 phosphate buffer, and pH 9.5 carbonate buffer). HIV-1 CN54 gp120 with a molecular weight of 130 kDa was obtained from the NIH AIDS Research and Reference Reagent Program (Division of AIDS, NIH). CN54 gp120 was attached to a CM4 sensor chip using standard amine coupling chemistry with a density of 10,000 RU. […] Affinity for the gp120 functionalized surface was determined by comparing raw data to three reference cells: two of the unactivated CM4 surfaces, and an activated CM4 surface capped completely by ethanolamine. […] The association and dissociation phases were monitored for 1-3 min and 3-10 min respectively. Data was fitted to a 1:1 interaction model and the apparent affinity, KD, was determined using Scrubber II software. […]
Binding affinities in the presence of the seminal component fructose were also analyzed. […]

[1] = Solubility of ligand in buffer for SPR; type: physicochemical; details: pH 5.5
Procedure: (§1) Two commercially available functionalized phenylboronic acids (Frontier Scientific, Logan Utah) were screened to compare the effect of electron withdrawing substituents (2,5-difluorophenylboronic acid, 1, FIG. 3a), versus a ortho-hydroxymethyl substituent (2-hydroxymethylphenylboronic acid, 2, FIG. 3a) prepared at 50 mM concentrations in 25 mM buffers at the appropriate pH (pH 5.5 acetate buffer, pH 7.5 phosphate buffer, and pH 9.5 carbonate buffer). HIV-1 CN54 gp120 with a molecular weight of 130 kDa was obtained from the NIH AIDS Research and Reference Reagent Program (Division of AIDS, NIH). CN54 gp120 was attached to a CM4 sensor chip using standard amine coupling chemistry with a density of 10,000 RU. Briefly, using HBS-P as the running buffer, the carboxymethyl dextran surface of a surface Plasmon resonance (SPR) chip (CM4 chip, Biacore) was activated with an injection of a 1:1 ratio of 0.4M 1-ethyl-3-(3-dimethylaminopropyl)carbodiimide hydrochloride (EDC)/0.1M N-hydroxysuccinimide (NHS). CN54 gp120 in 10 mM sodium acetate (pH 5.5) was then coupled to the surface. The remaining activated groups were then blocked by an injection of 1M ethanolamine (pH 8.5).

[2] = SPR reference surface (nonfunctionalized dextran); type: binding; details: pH 7.5, raw SPR data
Procedure: as §1

| binding to nonfunctionalized dextran surface [2] | Structure (SMILES) | apparent affinity, KD, to gp120 functionalized surface (HIV-1 CN54 gp120) | solubility [1] |
| --- | --- | --- | --- |
| – | OCc1ccccc1B(O)O [compound 2, 2-hydroxymethylphenylboronic acid] | slightly higher affinity compared to the more acidic 1 | not soluble |
| no binding | OB(O)c1cc(F)ccc1F [compound 1, 2,5-difluorophenylboronic acid] | – | – |
